“Also recorded” adds a separate entry of the source.
Assays:
Format in all cases: biochemical
UBE2D1 / GST-FANCLRING = test system: T1, UBE2D1 / GST-FANCLRING; experiment: Gel-based ubiquitylation assay, E2 = UBE2D1, E3 = GST-FANCLRING; conditions: 30 min at 37 °C, Western blot
T1 construct: the RING domain (residues 275–375) of the E3 FANCL (FANCLRING); His6 (N); made in house; host or cells: E. coli Rosetta (DE3)
Protocol: (§1) Figure 2 Gel-based ubiquitylation assays with confirmed HTRF hits. […] Western blots (WB) probed for GST or biotin as labeled. Reactions contained 20 nM His6-UBE1, 50 nM E2, 250 nM GST-E3, 500 nM biotinylated ubiquitin: (a) E2 = UBE2T, E3 = GST-FANCLRING, 30 min of reaction at 37 °C; (b) E2 = UBE2D1, E3 = GST-FANCLRING, 30 min of reaction at 37 °C; and (c) E2 = UBE2D1, E3 = GST-RNF8, 10 min of reaction at 37 °C.
In order to explore the selectivity of CU1, CU2, CU9, CU10, and CU12, we conducted a counter-screen against other E2 and E3 combinations. Since members of the UBE2D family of E2s are known to ubiquitylate multiple substrates in vitro,[13] a ubiquitylation assay featuring UBE2D1 and GST-FANCLRING was performed. With UBE2D1, multiple ubiquitylated GST-FANCLRING species could be observed (Figure 2b).
(§2) Purified protein was concentrated using a Vivaspin-6 concentrator with a 10 kDa MW cut-off (Vivascience) and flash-frozen in small aliquots for storage at […]
(§3) Cy5 labelling of ubiquitin. To a 5 mg/mL solution of recombinant human ubiquitin (Boston Biochem) in 0.1 M NaHCO3 pH 8.3, was added a 4-fold molar excess of Cyanine5 NHS ester (Lumiprobe). The reaction was incubated at 23 °C for 4 hours in the dark. The protein was separated from unreacted dye by passage through a PD-10 desalting column (GE Healthcare) equilibrated with PBS. Purified protein was concentrated using a Vivaspin-6 concentrator with a 3 kDa MW cut-off (Vivascience) and flash-frozen in small aliquots for storage […]
(§4) Homogeneous Time-Resolved Fluorescence (HTRF) Assay. GST-FANCLRING (200 nM) was incubated with anti-GST Tb (CisBio, #61GSTTL) (2.5 ng final) at room temperature for 30 minutes in assay buffer (50 mM Tris-HCl pH 8.0, 1 mM TCEP, 5 mM MgCl2, 0.005% Tween-20). Meanwhile, 10 μL of UBE2T in assay buffer (or assay buffer alone for no enzyme controls) was incubated in a white 384-well plate (Corning) with 20 nL DMSO or compound in DMSO. After 30 minutes, the GST-RINGRING solution was added to an equal volume solution containing His-UBE1 (Boston Biochem) (16 nM), Cy5-ubiquitin (400 nM), ATP (0.8 mM) in assay buffer. 10 μL of this solution was immediately added to each well of the 384 -well plate containing UBE2T or buffer. F inal concentrations: His -UBE1 (4 nM), UBE2T (6 nM), GST -RINGRING (50 nM), Cy5-ubiquitin (100 nM), ATP (0.2 mM), compound (10 or 20 μM) in 0.1 %
(§5) (v/v) DMSO. After a 10 minute incubation at 23 °C, 5 µL of a 50 mM EDTA solution were added to each well to stop the reaction. Signal was measured at λEx 340 nm and λEm 665 nm and 620 nm using a PHERAstar FS plate reader
(§6) (BMG Labtech). A ratio was calculated as [λEm(665)/λEm(620)] × 104 for each well and this was used to determine the percent inhibition for test compounds.
(§7) Gel-based ubiquitylation assays. Assays were carried out in a total volume of 10 µL containing 20 nM His6-UBE1 (Boston Biochem), 50 nM UBE2T, 250 nM GST-E3 and 500 nM biotinylated ubiquitin (Boston Biochem) in buffer (50 […]
(§8) Reaction mixtures were incubated for the indicated time at 37 °C and stopped by the addition of 2X reducing SDS -PAGE sample buffer, separated on NuPAGE Novex 4 –12% Bis/Tris gradient gels (Invitrogen) and visualized by Western blotting using the indicated antibodies (Table S3).
Cell culture. […]

UBE2D1 / GST-RNF8 = test system: T2, UBE2D1 / GST-RNF8; experiment: Gel-based ubiquitylation assay, E2 = UBE2D1, E3 = GST-RNF8; conditions: 10 min at 37 °C, Western blot
T2 construct: His6 (N); made in house; host or cells: E. coli Rosetta (DE3)
Protocol: as §1
A further ubiquitylation assay was performed with an alternative E3, RNF8, which also plays important roles in the DDR.[14] In contrast to GST-FANCLRING, long polyubiquitin chains were attached to GST-RNF8 by UBE2D1 (Figure 2c).
as §2, §3, §4, §5, §6, §7, §8
Cell culture. U2OS cells were cultured at 37 °C in a humidified atmosphere and 5% (v/v) CO2 in Dulbecco's Modified Eagle Medium (DMEM; Sigma-Aldrich) supplemented with 10% (v/v) fetal bovine serum (FBS), 100 units/ml of penicillin, […] of streptomycin and 292 μg/mL L-glutamine.
Cell extract preparation and immunoblotting. U2OS cells were lysed in buffer containing 50 mM Tris-HCl pH 7.5, 2% SDS, 10 mM NEM, cocktail protease inhibitor (Roche) and phosphatase inhibitor cocktail followed by sonication 100 µg of extracts were boiled for 5 mins at 95 °C in 5X loading buffer and loaded onto NuPAGE Novex 4–12% Bis/Tris gradient gels
(Invitrogen), or NuPAGE Novex 3-8% Tris/Acetate gradient gels (Invitrogen) for detection of mUb-FANCD2. After separation the gels were transferred to PVDF and the membranes were blocked with Tris-buffered saline containing 0.1% (v/v) Tween-20 (TBST) and 5% (v/v) bovine serum albumin (BSA) and […]

UBE2T = test system: T3, UBE2T; experiment: Gel-based ubiquitylation assay (UBE2T/GST-FANCLRING), blot probed for UBE2T; conditions: compound 100 μM, Western blot probed for UBE2T
T3 construct: His6 (N); made in house; host or cells: E. coli Rosetta (DE3)

Compound: NCCN1C(=O)CC[C@H]2CN(Cc3cccc(-c4ccco4)c3)CC[C@H]21 [CU1]
- ubiquitylation of GST-FANCLRING (UBE2D1 / GST-FANCLRING): essentially abolished the ubiquitylation of GST-FANCLRING
- ubiquitylation of GST-RNF8 and UBE2D1 (UBE2D1 / GST-RNF8): but not GST-RNF8
- ubiquitylation of GST-RNF8 and UBE2D1 (UBE2D1 / GST-RNF8; listed as CU 1): no detectable effects on ubiquitylation of GST-RNF8 and UBE2D1
- ubiquitylation of UBE2T (UBE2T): did not affect ubiquitylation of either UBE2T or UBE1; also recorded: unaffected

Compound: CCN1CCN(c2cc(C)nc3nc(CN4CCCCC4C)nn23)CC1 (stereo not shown) [CU2]
- ubiquitylation of GST-FANCLRING (UBE2D1 / GST-FANCLRING): essentially abolished the ubiquitylation of GST-FANCLRING
- ubiquitylation of GST-RNF8 and UBE2D1 (UBE2D1 / GST-RNF8): but not GST-RNF8; also recorded: no detectable effects on ubiquitylation of GST-RNF8 and UBE2D1
- ubiquitylation of UBE2T (UBE2T): did not affect ubiquitylation of either UBE2T or UBE1
- ubiquitylation of UBE2T (UBE2T; listed as 2): unaffected

Compound: Cc1nnc(N(C)CC2CCN(CC(C)O)CC2)c(C#N)c1C (stereo not shown) [CU9]
- ubiquitylation of GST-FANCLRING (UBE2D1 / GST-FANCLRING): essentially abolished the ubiquitylation of GST-FANCLRING
- ubiquitylation of GST-RNF8 and UBE2D1 (UBE2D1 / GST-RNF8): but not GST-RNF8; also recorded: no detectable effects on ubiquitylation of GST-RNF8 and UBE2D1
- ubiquitylation of UBE2T (UBE2T): did not affect ubiquitylation of either UBE2T or UBE1
- ubiquitylation of UBE2T (UBE2T; listed as 9): unaffected

Compound: NC(=O)[C@@H]1CCCN1C(=O)c1cc(-n2cccc2)ccc1Cl [CU12]
- ubiquitylation of GST-FANCLRING (UBE2D1 / GST-FANCLRING): essentially abolished the ubiquitylation of GST-FANCLRING
- ubiquitylation of GST-RNF8 and UBE2D1 (UBE2D1 / GST-RNF8): appeared to inhibit the ubiquitylation of all species in the assay
- ubiquitylation of UBE2T (UBE2T): prevented the ubiquitylation of UBE2T
- ubiquitylation of UBE2T (UBE2T; listed as 12): essentially completely inhibited
